Measurements as given in patent US20240228486A1, “SULFONE- AND SULFOXIMINE-BASED SELECTIVE PARP1 INHIBITORS” (Enliven Inc., priority 2022, published 2024).
pIC50: −log10 of the molar value.

Assays:
[1] = target: PARP1 (Homo sapiens (Human), UniProt P09874); assay: PARP1 FP Assay; assay type: binding; settings: PARP1 fluorescence polarization probe assay, 4 hours at room temperature
Protocol: Compounds were dissolved and 4-fold serially diluted in DMSO. Compounds were transferred by an Echo to the assay plate to reach final concentrations ranging from 10 μM to 0.01 nM.
Assay buffer was composed of 50 mM Tris pH 8.0, 10 mM MgCl2, 150 mM NaCl and 0.001% Triton X100.

[2] = target: PARP2 (Homo sapiens (Human), UniProt Q9UGN5); assay: PARP2 FP Assay; assay type: binding; settings: PARP2 fluorescence polarization probe assay, 4 hours at room temperature
[3] = tested on: PARylation level in MDA-MB-436; assay: PARPylation MSD Assay on MDA-MB-436; assay type: cell-based; settings: Homo sapiens; MDA-MB-436 cells, 4 hours incubation with compound, electrochemiluminescent (MSD) detection of PARylation
Protocol: Compounds were dissolved and 4-fold serially diluted in DMSO.
Plates were incubated for 1 hour at room temperature, with shaking. […] Plates were incubated for 1 hour at room temperature, with shaking.

PARP1, sequence (P09874 whole entry): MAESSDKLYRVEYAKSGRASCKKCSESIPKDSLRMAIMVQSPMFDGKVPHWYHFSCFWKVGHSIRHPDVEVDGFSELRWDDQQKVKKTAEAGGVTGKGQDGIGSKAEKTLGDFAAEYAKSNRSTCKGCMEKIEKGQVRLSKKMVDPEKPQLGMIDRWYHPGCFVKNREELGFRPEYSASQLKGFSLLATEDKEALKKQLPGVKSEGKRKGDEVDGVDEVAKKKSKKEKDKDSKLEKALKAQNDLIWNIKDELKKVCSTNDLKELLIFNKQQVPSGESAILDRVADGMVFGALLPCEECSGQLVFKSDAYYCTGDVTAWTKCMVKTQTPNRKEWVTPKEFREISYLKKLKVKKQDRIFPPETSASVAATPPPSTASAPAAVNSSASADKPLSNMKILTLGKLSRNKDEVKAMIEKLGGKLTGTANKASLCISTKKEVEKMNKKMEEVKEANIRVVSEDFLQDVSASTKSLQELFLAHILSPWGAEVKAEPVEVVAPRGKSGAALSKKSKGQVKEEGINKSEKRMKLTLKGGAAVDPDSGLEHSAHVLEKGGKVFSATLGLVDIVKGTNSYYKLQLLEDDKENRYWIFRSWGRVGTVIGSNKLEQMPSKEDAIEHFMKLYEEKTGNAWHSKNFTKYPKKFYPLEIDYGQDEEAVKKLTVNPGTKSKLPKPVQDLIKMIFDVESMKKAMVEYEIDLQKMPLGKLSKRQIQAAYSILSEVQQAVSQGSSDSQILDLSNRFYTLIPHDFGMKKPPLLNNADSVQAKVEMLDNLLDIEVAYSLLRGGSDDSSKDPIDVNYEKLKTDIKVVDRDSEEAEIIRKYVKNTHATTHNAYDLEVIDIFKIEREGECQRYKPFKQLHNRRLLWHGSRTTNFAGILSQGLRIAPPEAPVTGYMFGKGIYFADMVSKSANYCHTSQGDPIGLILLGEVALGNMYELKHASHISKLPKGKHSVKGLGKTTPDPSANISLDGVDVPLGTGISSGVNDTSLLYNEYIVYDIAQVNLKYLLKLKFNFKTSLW
PARP2, sequence (Q9UGN5 whole entry): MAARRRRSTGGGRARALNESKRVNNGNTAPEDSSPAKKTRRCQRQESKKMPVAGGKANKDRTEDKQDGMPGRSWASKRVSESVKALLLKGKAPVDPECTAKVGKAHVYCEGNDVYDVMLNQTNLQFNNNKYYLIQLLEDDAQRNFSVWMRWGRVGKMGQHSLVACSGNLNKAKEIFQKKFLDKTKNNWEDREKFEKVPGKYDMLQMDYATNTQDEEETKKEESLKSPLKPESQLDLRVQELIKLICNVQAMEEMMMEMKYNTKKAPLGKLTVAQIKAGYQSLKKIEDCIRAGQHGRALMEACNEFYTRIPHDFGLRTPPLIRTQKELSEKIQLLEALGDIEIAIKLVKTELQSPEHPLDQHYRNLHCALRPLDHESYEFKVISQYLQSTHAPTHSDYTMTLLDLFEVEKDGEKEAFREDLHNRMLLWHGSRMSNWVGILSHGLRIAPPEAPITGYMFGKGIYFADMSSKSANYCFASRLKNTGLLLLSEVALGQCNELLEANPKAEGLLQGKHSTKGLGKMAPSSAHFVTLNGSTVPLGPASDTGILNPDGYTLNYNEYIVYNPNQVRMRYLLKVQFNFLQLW

pIC50 [1]	pIC50 [2]	pIC50 [3]	SMILES
8.16	< 5.00	7.97	CCc1cc2ncc([S@](=N)(=O)C3CCN(c4ccc(C(=O)NC)nc4)CC3)cc2[nH]c1=O (single isomer, unassigned) [Compound 2.7]
8.06	< 5.00	9.29	CCc1cc2ncc([S@@](=N)(=O)C3CCN(c4ccc(C(=O)NC)nc4)CC3)cc2[nH]c1=O (single isomer, unassigned) [Compound 2.8]
< 5.00	< 5.00	< 6.00	CCc1cc2ncc(S(=O)(=O)N3CCN(c4ccc(F)cc4F)CC3)cc2[nH]c1=O [Compound 2.6, 7-((4-(2,4-difluorophenyl)piperazin-1-yl)sulfonyl)-3-ethyl-1,5-naphthyridin-2(1H)-one]
